We go through 15 compounds from ChEMBL document CHEMBL5665443, “Enzyme Inhibitor Single Concentration assay results for EUbOPEN Chemogenomics Library” (2024).

Holding throughout (conditions): Compound Concentration 10.0 uM, Hit No
Assay [1] addresses Methyl-CpG-binding domain protein 4 (Homo sapiens) (UniProt O95243).
Description: Inhibition of MBD4 by quantifying inhibition of MBD4-mediated cleavage and dissociation of quenched duplex DNA oligonucleotides, measured as fluorescence at 594 nm. To generate a functional strand incision and increase turn-over this assay is coupled to APE1.
Assay [2] addresses DNA-3-methyladenine glycosylase (Homo sapiens) (UniProt P29372).
Description: Inhibition of MPG by quantifying inhibition of MPG-mediated cleavage and dissociation of quenched duplex DNA oligonucleotides, measured as fluorescence at 594 nm. To generate a functional strand incision and increase turn-over this assay is coupled to APE1.
The target in assay [3] is T1, Adenine DNA glycosylase (Homo sapiens) (UniProt Q9UIF7).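 Note: human MUTYH activity read as 594 nm fluorescence from cleavage and release of a quenched DNA duplex, coupled with APE1 for strand incision, lower signal meaning inhibition.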
T1 sequence (whole entry): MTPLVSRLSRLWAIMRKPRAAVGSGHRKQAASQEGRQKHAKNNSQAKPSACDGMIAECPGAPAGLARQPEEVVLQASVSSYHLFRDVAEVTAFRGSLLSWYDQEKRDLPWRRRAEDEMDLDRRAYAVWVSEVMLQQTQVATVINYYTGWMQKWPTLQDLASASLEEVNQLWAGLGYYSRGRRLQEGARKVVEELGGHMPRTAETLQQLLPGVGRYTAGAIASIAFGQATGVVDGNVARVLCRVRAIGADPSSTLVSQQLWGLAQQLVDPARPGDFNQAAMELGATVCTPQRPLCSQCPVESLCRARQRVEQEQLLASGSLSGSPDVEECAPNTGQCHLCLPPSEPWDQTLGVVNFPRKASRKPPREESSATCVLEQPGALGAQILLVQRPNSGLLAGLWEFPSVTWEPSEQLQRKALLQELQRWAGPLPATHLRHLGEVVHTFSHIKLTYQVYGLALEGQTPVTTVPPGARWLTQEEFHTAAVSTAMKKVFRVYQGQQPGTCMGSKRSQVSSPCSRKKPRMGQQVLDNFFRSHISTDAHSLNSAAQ
Description: Inhibition of MUTYH by quantifying inhibition of MUTYH-mediated cleavage and dissociation of quenched duplex DNA oligonucleotides, measured as fluorescence at 594 nm. To generate a functional strand incision and increase turn-over this assay is coupled to APE1.

Assay [4] deals with Endonuclease 8-like 1 (Homo sapiens) (UniProt Q96FI4).
Chain of Endonuclease 8-like 1 (Homo sapiens) (Q96FI4 whole entry): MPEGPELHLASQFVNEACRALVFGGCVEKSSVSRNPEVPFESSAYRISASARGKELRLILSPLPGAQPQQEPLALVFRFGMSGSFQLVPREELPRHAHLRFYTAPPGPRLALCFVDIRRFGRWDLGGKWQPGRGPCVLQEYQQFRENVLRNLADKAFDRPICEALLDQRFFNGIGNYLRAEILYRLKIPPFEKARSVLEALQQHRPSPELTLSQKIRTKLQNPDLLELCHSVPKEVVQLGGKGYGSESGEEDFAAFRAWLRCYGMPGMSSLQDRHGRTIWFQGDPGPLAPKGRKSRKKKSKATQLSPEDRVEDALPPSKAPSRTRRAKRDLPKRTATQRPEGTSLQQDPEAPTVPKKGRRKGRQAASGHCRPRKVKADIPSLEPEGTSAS
Description: Inhibition of NEIL1 by quantifying inhibition of NEIL1-mediated cleavage and dissociation of quenched duplex DNA oligonucleotides, measured as fluorescence at 594 nm.
Assay [5] deals with T2, Endonuclease 8-like 2 (Homo sapiens) (UniProt Q969S2).
T2 sequence (whole entry): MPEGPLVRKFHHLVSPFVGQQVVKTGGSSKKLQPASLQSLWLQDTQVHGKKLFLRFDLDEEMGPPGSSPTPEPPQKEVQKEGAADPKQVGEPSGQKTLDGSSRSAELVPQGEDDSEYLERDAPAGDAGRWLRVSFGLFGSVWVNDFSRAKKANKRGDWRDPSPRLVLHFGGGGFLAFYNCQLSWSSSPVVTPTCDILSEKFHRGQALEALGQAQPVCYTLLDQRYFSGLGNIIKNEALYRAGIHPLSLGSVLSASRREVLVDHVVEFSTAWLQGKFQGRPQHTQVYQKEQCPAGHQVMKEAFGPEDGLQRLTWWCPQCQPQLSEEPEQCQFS
Description: Inhibition of NEIL2 by quantifying inhibition of NEIL2-mediated cleavage and dissociation of quenched duplex DNA oligonucleotides, measured as fluorescence at 594 nm.

In assay [6] the target is T3, Endonuclease III-like protein 1 (Homo sapiens) (UniProt P78549).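 Note: enzyme assay tracking NTHL1 cutting and release of a quenched double-stranded DNA oligo substrate, read as fluorescence at 594 nm.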
T3 sequence (whole entry): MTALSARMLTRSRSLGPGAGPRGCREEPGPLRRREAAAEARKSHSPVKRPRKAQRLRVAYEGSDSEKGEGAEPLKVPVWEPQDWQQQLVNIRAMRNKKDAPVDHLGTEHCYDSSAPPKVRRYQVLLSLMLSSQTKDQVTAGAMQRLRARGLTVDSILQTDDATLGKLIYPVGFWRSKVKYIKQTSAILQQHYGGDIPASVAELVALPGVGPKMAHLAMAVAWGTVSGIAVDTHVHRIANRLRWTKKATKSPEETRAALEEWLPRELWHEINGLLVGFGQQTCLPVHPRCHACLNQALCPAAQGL
Description: Inhibition of NTHL1 by quantifying inhibition of NTHL1-mediated cleavage and dissociation of quenched duplex DNA oligonucleotides, measured as fluorescence at 594 nm.

Assay [7] addresses N-glycosylase/DNA lyase (Homo sapiens) (UniProt O15527).
Description: Inhibition of OGG1 by quantifying inhibition of OGG1-mediated cleavage and dissociation of quenched duplex DNA oligonucleotides, measured as fluorescence at 594 nm. To generate a functional strand incision and increase turn-over this assay is coupled to APE1.
In assay [8] the target is T4, Single-strand selective monofunctional uracil DNA glycosylase (Homo sapiens) (UniProt Q53HV7).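 Note: enzymatic SMUG1 assay coupled with APE1, reading fluorescence at 594 nm released when a quenched double-stranded DNA oligonucleotide substrate is cleaved and separated.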
T4 sequence (whole entry): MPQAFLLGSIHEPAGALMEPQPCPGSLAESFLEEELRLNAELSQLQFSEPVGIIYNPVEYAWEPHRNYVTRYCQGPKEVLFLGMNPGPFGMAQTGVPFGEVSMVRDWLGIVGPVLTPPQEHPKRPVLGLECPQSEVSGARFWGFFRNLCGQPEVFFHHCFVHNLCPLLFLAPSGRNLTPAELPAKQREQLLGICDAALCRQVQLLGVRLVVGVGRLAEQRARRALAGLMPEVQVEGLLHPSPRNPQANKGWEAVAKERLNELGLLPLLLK
Description: Inhibition of SMUG1 by quantifying inhibition of SMUG1-mediated cleavage and dissociation of quenched duplex DNA oligonucleotides, measured as fluorescence at 594 nm. To generate a functional strand incision and increase turn-over this assay is coupled to APE1.

Assay [9] addresses G/T mismatch-specific thymine DNA glycosylase (Homo sapiens) (UniProt Q13569).
Description: Inhibition of TDG by quantifying inhibition of TDG-mediated cleavage and dissociation of quenched duplex DNA oligonucleotides, measured as fluorescence at 594 nm. To generate a functional strand incision and increase turn-over this assay is coupled to APE1.
Assay [10] has as its target Uracil-DNA glycosylase (Homo sapiens) (UniProt P13051).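 Note: UNG excision on a quenched double-stranded DNA oligo probe, with APE1 added for strand incision and turnover, read as fluorescence at 594 nm as strands separate.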
Description: Inhibition of UNG by quantifying inhibition of UNG-mediated cleavage and dissociation of quenched duplex DNA oligonucleotides, measured as fluorescence at 594 nm. To generate a functional strand incision and increase turn-over this assay is coupled to APE1.

Chain of Uracil-DNA glycosylase (Homo sapiens) (P13051 whole entry): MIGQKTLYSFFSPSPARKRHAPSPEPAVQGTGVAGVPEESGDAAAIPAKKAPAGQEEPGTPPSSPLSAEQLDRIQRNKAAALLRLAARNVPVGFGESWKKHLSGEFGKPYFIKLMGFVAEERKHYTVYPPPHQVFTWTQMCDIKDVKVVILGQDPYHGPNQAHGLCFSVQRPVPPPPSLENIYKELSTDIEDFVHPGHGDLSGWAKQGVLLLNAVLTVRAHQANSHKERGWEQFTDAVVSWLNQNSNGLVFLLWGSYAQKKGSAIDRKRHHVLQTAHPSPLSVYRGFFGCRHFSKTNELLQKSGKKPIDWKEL
Chain of DNA-3-methyladenine glycosylase (Homo sapiens) (P29372 whole entry): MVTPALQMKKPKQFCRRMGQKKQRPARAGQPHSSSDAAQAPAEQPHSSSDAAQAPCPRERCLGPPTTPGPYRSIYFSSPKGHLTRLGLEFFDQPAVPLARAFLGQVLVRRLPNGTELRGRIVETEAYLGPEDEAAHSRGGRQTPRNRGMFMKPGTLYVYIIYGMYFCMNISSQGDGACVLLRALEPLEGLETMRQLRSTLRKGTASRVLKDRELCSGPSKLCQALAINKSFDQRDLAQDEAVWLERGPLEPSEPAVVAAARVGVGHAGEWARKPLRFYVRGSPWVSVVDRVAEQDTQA
Chain of N-glycosylase/DNA lyase (Homo sapiens) (O15527 whole entry): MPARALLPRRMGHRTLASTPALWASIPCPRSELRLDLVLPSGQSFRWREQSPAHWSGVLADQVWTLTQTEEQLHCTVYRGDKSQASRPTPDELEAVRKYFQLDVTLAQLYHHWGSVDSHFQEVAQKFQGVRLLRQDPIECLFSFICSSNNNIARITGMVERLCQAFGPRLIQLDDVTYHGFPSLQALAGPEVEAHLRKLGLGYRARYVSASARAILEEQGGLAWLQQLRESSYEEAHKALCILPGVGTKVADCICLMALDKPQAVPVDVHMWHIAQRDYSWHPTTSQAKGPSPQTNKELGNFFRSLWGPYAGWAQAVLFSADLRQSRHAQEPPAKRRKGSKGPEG
Chain of Methyl-CpG-binding domain protein 4 (Homo sapiens) (O95243 whole entry, the tested form may be a part): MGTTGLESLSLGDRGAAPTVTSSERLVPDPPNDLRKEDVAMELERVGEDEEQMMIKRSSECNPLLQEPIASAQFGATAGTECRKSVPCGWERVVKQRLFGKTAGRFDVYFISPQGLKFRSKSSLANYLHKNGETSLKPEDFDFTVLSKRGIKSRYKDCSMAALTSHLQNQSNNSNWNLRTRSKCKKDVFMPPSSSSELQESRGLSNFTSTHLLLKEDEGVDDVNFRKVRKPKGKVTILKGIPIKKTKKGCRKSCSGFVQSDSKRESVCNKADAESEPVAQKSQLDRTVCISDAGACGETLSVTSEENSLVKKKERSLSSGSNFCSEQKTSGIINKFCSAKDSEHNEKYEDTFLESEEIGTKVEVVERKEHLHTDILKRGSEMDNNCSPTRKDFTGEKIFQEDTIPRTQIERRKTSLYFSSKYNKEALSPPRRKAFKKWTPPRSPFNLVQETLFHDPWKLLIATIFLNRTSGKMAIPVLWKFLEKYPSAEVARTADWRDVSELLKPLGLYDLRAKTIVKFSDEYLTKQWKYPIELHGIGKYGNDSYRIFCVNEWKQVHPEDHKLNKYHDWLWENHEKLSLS
Chain of G/T mismatch-specific thymine DNA glycosylase (Homo sapiens) (Q13569 whole entry): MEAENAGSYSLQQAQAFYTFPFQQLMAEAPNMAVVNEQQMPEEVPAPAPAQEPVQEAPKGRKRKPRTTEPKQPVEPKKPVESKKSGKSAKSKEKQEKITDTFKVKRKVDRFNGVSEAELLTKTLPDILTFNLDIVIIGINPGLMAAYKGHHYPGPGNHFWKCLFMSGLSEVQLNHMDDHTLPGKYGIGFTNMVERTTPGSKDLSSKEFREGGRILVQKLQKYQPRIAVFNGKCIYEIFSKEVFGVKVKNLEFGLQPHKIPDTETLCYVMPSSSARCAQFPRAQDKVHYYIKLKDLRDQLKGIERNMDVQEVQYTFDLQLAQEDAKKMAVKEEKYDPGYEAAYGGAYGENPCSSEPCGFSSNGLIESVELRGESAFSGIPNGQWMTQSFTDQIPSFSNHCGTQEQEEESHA

The term inhibition denotes the relative decrease from the control value, in per cent. With `O=C(O)C[C@H]1CCc2c1[nH]c1ccc(OCc3ccc(C4CCCC4)c(C(F)(F)F)c3)cc21`, the inhibition was 47.5% in [1]; 18.9% in assay [2]; 9.75% in [3]; -9.84% in [4]; 0.515% in [5]; 36.4% in assay [6]. Further, the inhibition is 34.1% in assay [7], -8.03% in assay [8], 45% in assay [9] and -6.26% in assay [10].
In the case of `CC(C)c1cc(Br)c(NC(=O)Nc2cccnc2)c(Br)c1`, the inhibition in assay [1] was 12.5%; in [2] it was 14.7%; in assay [3], 0.0238%; in assay [4], 3.27%; in assay [5] it was 7.55%; in assay [6] it was -2.73%. Besides, the inhibition in assay [7] is -2.73%; in assay [8], -3.86%; in [9], 19.7%; in assay [10], -2.82%.
Consider `NC(N)=Nc1nc(CSCC/C(N)=N/S(N)(=O)=O)cs1`, for which the inhibition in assay [1] was 6.83%; in assay [2], 11.5%; in [3], 21.8%; in [4], 9.58%; in [5], 17.5%; in [6], -2.47%. In addition, the inhibition was 2.35% in assay [7], -5.17% in assay [8], 13.5% in assay [9] and -4.9% in assay [10].
For `O=C(c1cc(C2CC2)on1)N(C1CCCCC1)C1CCCCC1`, the inhibition in assay [1] is 8.05%; in assay [2] it was 42.7%; in assay [3], 24.8%; in assay [4] it was 0.306%; in assay [5], -3.92%; in assay [6] it was 10.5%. For the same compound, the inhibition in assay [7] is 0.0968%; in assay [8] it was -5.04%; in [9], 14.9%; in assay [10], -1.05%.
For `FC(F)(F)c1ccc(Nc2ncnc3cc(-c4ncccc4C(F)(F)F)ccc23)cc1`, the inhibition was 18.4% in assay [1]; 12.8% in assay [2]; 26.4% in [3]; 11.7% in assay [4]; 2.71% in [5]; -4.39% in assay [6]. The inhibition in assay [7] was found to be 5.12%; in [8], 19.7%; in assay [9], 25%; in assay [10] it was 1.01%.
As to `CC(C)C[C@@H](C(=O)N[C@@H](Cc1ccc(OCc2ccccc2)cc1)C(=O)NC(C)(C)C)N(C)Cc1ccc(C(C)(C)C)cc1`, the inhibition was 16.1% in [1]; 6.32% in assay [2]; 5.01% in [3]; 2.38% in assay [4]; -9.01% in assay [5]; 23.7% in assay [6]. In addition, the inhibition is 14.7% in [7], -4.08% in [8], 11.4% in [9] and -6.44% in [10].
`CC(C)(C)C1CCc2c(sc(NC(=O)c3ccco3)c2C(=O)O)C1` (stereo not given): the inhibition is 32.2% in assay [1]; -0.565% in assay [2]; 30.5% in [3]; 4.9% in assay [4]; 17.7% in assay [5]; 33.6% in [6]. Moreover, the inhibition in [7] was 36.3%; in assay [8], -0.636%; in [9], 25.9%; in assay [10], -0.0242%.
Turning to `Cc1ccc2c(c1CCC(=O)O)CC[C@@H](NS(=O)(=O)c1ccc(Cl)cc1)C2`, the inhibition in assay [1] came to 16.2%; in assay [2] it was 11.8%; in assay [3], 33.4%; in assay [4] it was 5.13%; in assay [5], 1.01%; in assay [6] it was 15.1%. Besides, the inhibition in [7] is 10%; in assay [8], 4.86%; in assay [9] it was 18%; in [10], -7.64%.
With `Cc1ccc(C(C)(O)c2nc3ccccc3s2)c(C)c1` (stereo not given), the inhibition in assay [1] stood at 0.731%; in [2], 10.5%; in assay [3], 0.661%; in [4] it was 7.8%; in assay [5], 11%; in assay [6] it was 8.52%. Besides, the inhibition in [7] is 2.68%; in assay [8], 9.99%; in assay [9] it was 14.6%; in assay [10] it was -8.45%.
On to `NCC(O)c1ccc(O)cc1` (stereo not given), for which the inhibition came to 41.7% in [1]; 13.2% in assay [2]; 17.4% in [3]; 3.71% in [4]; 2.96% in [5]; 2.22% in assay [6]. The inhibition in assay [7] is -0.921%; in assay [8] it was 16%; in assay [9], 14.3%; in assay [10] it was 0.665%.
Consider `O=C(NCC(=O)N1CC[C@H](N[C@H]2CC[C@@](O)(c3ccc(-c4ncccn4)cn3)CC2)C1)c1cccc(C(F)(F)F)c1`, for which the inhibition was -4.26% in assay [1]; -2.02% in assay [2]; 10.3% in [3]; 2.76% in [4]; 6.25% in assay [5]; 0.458% in assay [6]. For the same compound, the inhibition in [7] is 1.04%; in [8], 2.1%; in assay [9], 24.3%; in [10], -9.06%.
As for `COc1ccc(CCCN2CCC(COC(c3ccccc3)c3ccccc3)CC2)cc1`, the inhibition is 49.2% in [1]; 47.2% in assay [2]; 35% in assay [3]; 4.75% in assay [4]; 8.06% in assay [5]; 13.8% in assay [6]. Also, the inhibition in assay [7] is -0.567%; in assay [8] it was 9.31%; in [9], 47.6%; in assay [10], -1.12%.
With `CCOC(=O)N[C@@H]1CC[C@@H]2[C@@H](C1)C[C@H]1C(=O)O[C@H](C)[C@H]1[C@H]2/C=C/c1ccc(-c2cccc(F)c2)cn1`, the inhibition in assay [1] is -1.19%; in assay [2], -7.15%; in assay [3], 1.43%; in assay [4], 5.28%; in assay [5] it was -1.73%; in [6] it was 2.66%. In addition, the inhibition was 8.48% in assay [7], 10.5% in assay [8], 13.4% in assay [9] and -5.33% in assay [10].
Consider `CCc1nc2c(o1)CC(c1ccc(C)cc1C)CC2=O` (stereo not given), for which the inhibition in assay [1] is 17.2%; in assay [2], 23.6%; in [3], -1.84%; in [4], 6.08%; in [5] it was 6.53%; in assay [6] it was -4.39%. Moreover, the inhibition was -9.46% in assay [7], 5.18% in assay [8], 16.4% in assay [9] and 0.136% in assay [10].
On to `O=C1NCN(c2ccccc2)C12CCN(CCCOc1ccc(F)cc1)CC2`, for which the inhibition was 6.25% in assay [1]; -9.19% in [2]; -5.23% in assay [3]; -1.54% in assay [4]; 2.26% in assay [5]; 4.86% in assay [6]. Further, the inhibition is -4.77% in assay [7], 13.1% in [8], 13.9% in assay [9] and -6.4% in [10].
